Results: patent publication US10945978B2, “Treatment and diagnosis of melanoma” (The Rockefeller University, priority 2012, dated 2021)
Structures can show the parent of a compound that is named as a salt.

Columns and labels:
[1] = test system: melanoma cells (MeWo, MeWo-LM2, HT-144, SK-Mel-334.2) and endothelial cells; assay: In vitro cell proliferation, viability and serum starvation assays; assay type: cell-based, human; set-up: melanoma cell or endothelial cell in vitro proliferation: dose or concentration left out as unconfirmed; conditions: for cell proliferation or cell viability rates: MeWo, HT-144, SK-Mel-334.2, 1 μM, 5 days
Method: To determine the effects of miR-199a or miR-1908 over-expression and combinatorial LNA-induced miRNA inhibition on cell proliferation, 2.5×10^4 cells were seeded in triplicate in 6-well plates, and viable cells were counted after 5 days. […] Viable cells were counted after 8, 24, 48, 72, and 120 hours.
The number of viable cells was counter after 8, 16, and 24 hours.
To determine the effects of GW3965, T0901317, and Bexarotene on in vitro cell growth, 2.5×10^4 melanoma cells were seeded in triplicate in 6-well plates and cultured in the presence of DMSO, GW3965, T0901317, or Bexarotene at 1 μM each. After 5 days, the number of viable and dead cells was counted using the trypan blue dye (72-57-1, Sigma-Aldrich), which selectively labels dead cells.

[2] = test system: MeWo human melanoma cells; assay: Lung metastatic colonization by MeWo cells injected i.v. into NOD Scid mice; assay type: in vivo; conditions: for reduction in lung metastatic colonization: chow 20 mg/kg starting 10 days prior to cell injection
Method: Melanoma cells used for in vivo metastasis assays were transduced with a stably expressed retroviral construct encoding a luciferase reporter gene (Ponomarev et al., 2004), allowing us to monitor the in vivo progression of melanoma cells by bioluminescence imaging. The following numbers of melanoma cells, resuspended in 100 μL of PBS, were injected intravenously via the tail-vein: 4×10^4 MeWo cells, 2.5×10^5 HT-144 cells, 2×10^5 SK-Mel-334.2 cells, 5×10^4B16F10 cells, and 1×10^5 YUMM cells. The MeWo, HT-144, and SK-Mel-334.2 cells were injected into 6-8 week-old sex-matched NOD scid mice, while the B16F10 and YUMM cells were injected into 6-8 week-old sex-matched C57BL/6 mice. In all experiments assessing at the effects of GW3965 on metastasis formation, mice were pre-treated on a control diet or a GW3965-supplemented diet (20 mg/kg) for 10 days. To assess the effect of GW3965 treatment on brain metastasis, 1×10^5 MeWo brain-metastatic derivatives were injected intracardially into athymic nude mice. Immediately following injection, mice were randomly assigned to a control diet or GW3965-supplemented diet (100 mg/kg). To determine whether oral delivery of GW3965 can inhibit the progression of incipient metastasis, NOD Scid mice were intravenously injected with 4×10^4 MeWo cells and the cells were allowed to colonize the lungs for 42 days, after which mice were blindedly assigned to a control diet or a GW3965-supplemented diet (100 mg/kg) treatment.

[3] = test system: B16F10 mouse melanoma cells; assay: Subcutaneous B16F10 tumor growth in C57BL/6 mice; conditions: for suppression of tumor growth: 20 mg/kg
Method: Animals were palpated weekly for tumor formation, after which sizeable tumors were measured twice a week. Tumor volume was calculated as (small diameter)^2×(large diameter)/2.

Extracellular ApoE = assay: ApoE ELISA in conditioned media; assay type: cell-based, human; conditions: MeWo cells; 1 μM, 72 hours
Method: Extracellular ApoE levels in serum-free conditioned media from melanoma cells treated with DMSO, GW3965, or T0901317 (1 μM each) were quantified using the ApoE ELISA kit (Innovative Research) at 72 hours following treatment.

ApoE = ApoE expression in mice fed LXR agonist diet (western blot, qRT-PCR); assay type: in vivo, mouse; conditions: 10 days; for ApoE protein expression in systemic adipose, lung, and brain tissues: chow 20 mg/kg, western blot; for ApoE transcript levels in circulating white blood cells: diet 20 mg/kg, qRT-PCR
Method: Mouse lung and brain tissue samples were homogenized on ice in RIPA buffer (Sigma-Aldrich) supplemented with protease inhibitors (Roche). Mouse adipose tissue was homogenized on ice in TNET buffer (1.5 mM Tris pH 7.5, 150 mM NaCl, 2 mM EDTA 1% triton, protease inhibitors). Total protein lysate (2 jag) was separated by SDS-PAGE, transferred to PVDF membrane, and blotted with an anti-mouse ApoE (ab20874, Abcam) and anti-tubulin α/β (2148, Cell Signaling) antibodies. RNA was extracted from whole cell lysates using the Total RNA Purification Kit (17200, Norgen, Thorold, Canada). 600 ng of total RNA was then reverse transcribed into cDNA using the cDNA First-Strand Synthesis Kit (18080-051, Invitrogen), and quantitative real-time PCR amplification was performed as previously described (Pencheva et al., 2012) using an ABI Prism 7900HT Real-Time PCR System (Applied Biosystems, Austin, Tex.). Each PCR reaction was carried out in quadruplicates. Gene expression was normalized to GAPDH, which was used as an endogenous control.

[4] = test system: ApoE promoter fused to ME.1 or ME.2; assay: ApoE promoter activity assay (luciferase); assay type: cell-based, human; conditions: MeWo cells; 1 μM, 24 hours
Excerpt: The ApoE promoter, consisting of a sequence spanning 980 base pairs upstream and 93 base pairs downstream of the ApoE gene, was cloned into a pGL3-Basic vector (E1751, Promega Corporation, Madison, Wis.) upstream of the firefly luciferase gene using NheI and SacI restriction enzymes. Then, multi-enhancer elements 1 (ME. 1) and 2 (ME.2) were cloned directly upstream of the ApoE promoter using MluI and SacI restriction enzymes. To assess ApoE promoter- and ME.1/ME.2-driven transcriptional activation by LXR agonists, 5×10^4 MeWo cells were seeded into a 24-well plate. The following day, 100 ng of pGL3-ME. […] To assess transcriptional activation by LXRα or LXR(3, 5×10^4 MeWo cells expressing a control shRNA or shRNA targeting LXRα or LXRβ were seeded into a 24-well plate. The following day, 200 ng of pGL3-ME. 1/ME.2-ApoE promoter construct and 2 ng of pRL-CMV renilla luciferase were co-transfected into cells in the presence of DMSO, GW3965, or T0901317 at 1 μM, each condition in quadruplicate. After 24 hours, cells were lysed, and cell lysate was analyzed for firefly and renilla luciferase activity using the Dual Luciferase Assay System (E1960, Promega) and a Bio-Tek Synergy NEO Microplate Reader. Firefly luciferase signal was normalized to renilla luciferase signal and all data are expressed relative to the luciferase activity ratio measured in the DMSO-treated control cells.

Q: What does the source list for “recombinant human ApoE: recombinant human ApoE3 (4696, BioVision)”?
A: melanoma cell or endothelial cell in vitro proliferation ([1]; MeWo-LM2 cells or endothelial cells, ApoE): did not affect; survival in serum starvation conditions ([1]; MeWo-LM2 cells or endothelial cells, ApoE, 0.2% FBS): did not affect

Q: For `O=S(=O)(c1ccccc1)N(CC(F)(F)F)c1ccc(C(O)(C(F)(F)F)C(F)(F)F)cc1` [T0901317 1], which “reduction in lung metastatic colonization” value ([2]; oral) is on record?
A: 23 fold

Q: And the “cell proliferation or cell viability rates” value [1]?
A: did not affect

Q: And the “suppression of tumor growth” value ([3]; oral, from tumors of 5-10 mm3)?
A: 61%

Q: And the “levels of secreted ApoE protein” value (Extracellular ApoE)?
A: elevated levels

Q: And the “ApoE protein expression in systemic adipose, lung, and brain tissues” value (ApoE)?
A: significantly elevated

Q: And the “ApoE transcript levels in circulating white blood cells” value (ApoE)?
A: upregulated

Q: And the “activity of luciferase reporter with ApoE promoter fused to ME.1 or ME.2” value [4]?
A: enhance

Q: Which results are given for `O=C(O)Cc1cccc(OCCCN(Cc2cccc(C(F)(F)F)c2Cl)CC(c2ccccc2)c2ccccc2)c1` [GW3965 2, 3-[3-[N-(2-Chloro-3-trifluoromethylbenzyl)-(2,2-diphenylethyl)amino]propyloxy] phenylacetic acid hydrochloride]?
A: survival times following metastatic colonization ([2]; GW3965-supplemented chow): significantly prolonged; suppression of colonization by incipient lung metastases ([2]; GW3965 diet 100 mg/kg from d42): 28 fold; number of macroscopic metastatic nodules ([2]; GW3965 diet 100 mg/kg from d42, lungs at d77): decreased; reduction in metastatic colonization capacity ([2]; cells pre-treated with GW3965 1 μM for 48 hours): more than 50 fold; in vivo melanoma metastasis (lung, bioluminescence) ([2]; chow containing GW3965 20 mg/kg, oral): significant reduction; reduction in lung metastatic colonization ([2]; oral): 31 fold; cell proliferation or cell viability rates [1]: did not affect; suppression of tumor growth in mice genetically inactivated for ApoE ([3]; ApoE−/− mice, GW3965 diet 20 mg/kg, 7 days): completely ineffective; suppression of tumor growth ([3]; oral, from tumors of 5-10 mm3): 67%; reduction in tumor growth ([3]; oral, 100 mg/kg, from tumors of 5-10 mm3): 80%; reduction in the growth of established large tumors ([3]; tumors ~150 mm3, chow containing GW3965 150 mg/kg): roughly 50%; levels of secreted ApoE protein (Extracellular ApoE): elevated levels; ApoE protein expression in systemic adipose, lung, and brain tissues (ApoE): significantly elevated; ApoE transcript levels in circulating white blood cells (ApoE): upregulated; activity of luciferase reporter with ApoE promoter fused to ME.1 or ME.2 [4]: enhance
